Experimental data reported in patent US20260224524A1, “A PHARMACEUTICAL COMPOSITION TARGETING MUTANT P53 AND HER2” (DR DOZO LABORATORIES, priority 2023, published 2026).
≈ marks a conversion by molar mass, not a printed value.

Key:
[1] = tested on: Human Breast Cancer Cell Line MDA-MB-231; assay: Growth inhibition (% control growth, LC50, TGI, GI50) MDA-MB-231; type: cell-based
[2] = tested on: human tumour xenograft MDA-MB-231; assay: Human tumour xenograft MDA-MB-231 model, tumour volume and relative tumour volume; type: in vivo, mice; set-up: Tumor Volume: unit not given here; settings: Group B; for RTV (Relative Tumour Volume): 2.5 mg/kg i.v. day 1, 5, 9
Description: The therapeutic effect of SACC is evaluated against triple-negative breast cancer cell line MDA-MB-231 by analysing tumour volume and relative tumour volume. The study involved the use of six mice. These mice were administrated treatment according to the following Groups: […]

[3] = tested on: Human Pancreatic Cancer Cell Line Mia-Pa-Ca-2; assay: Growth inhibition (% control growth, LC50, TGI, GI50) Mia-Pa-Ca-2; type: cell-based; settings: for GI50: Homo sapiens
Description: The therapeutic effect of SA1 (peak 5) and SA2 (peak 4) is evaluated against human pancreatic cancer cell line Mia-Pa-Ca-2 by calculating the percentage growth inhibition, drug concentration of test compound needed to inhibit cell growth by 50% (GI50) values.
The therapeutic effect of SACC is evaluated against human […] cancer cell line Mia-Pa-Ca-2 by calculating the percentage growth inhibition, drug concentration of test compound needed to inhibit cell growth by 50% (GI50) values.

## COc1cccc2c1C(=O)c1c(O)c3c(c(O)c1C2=O)C[C@@](O)(C(=O)CO)C[C@@H]3O[C@H]1C[C@H](N)[C@H](O)[C@H](C)O1 [ADR, Adriamycin]
[1]; 10 μg/ml, Experiment 2
  % Control Growth: −89.3%
[1]; 20 μg/ml, Experiment 1
  % Control Growth: −85.1%
[1]; 40 μg/ml, Experiment 1
  % Control Growth: −80.9%
[1]; 80 μg/ml, Experiment 3
  % Control Growth: −71.2%
[2]; day 9
  RTV (Relative Tumour Volume): 0.95
[2]; day 15
  RTV (Relative Tumour Volume): 1.63
[2]; day 18
  RTV (Relative Tumour Volume): 1.93
[2]; day 21
  RTV (Relative Tumour Volume): 2.29
[2]; day 25
  RTV (Relative Tumour Volume): 4.22
[2]; day 30
  RTV (Relative Tumour Volume): 7.30
[2]; ADR 2.5 mg/Kg
  tumour volume (in words): decreased tumour volume
[2]; ADR 2.5 mg/Kg, day 1, Mouse 1
  Tumor Volume: 0.06
[2]; ADR 2.5 mg/Kg, day 1, Mouse 2
  Tumor Volume: 0.05
[2]; ADR 2.5 mg/Kg, day 1, Mouse 3
  Tumor Volume: 0.06
[2]; ADR 2.5 mg/Kg, day 1, Mouse 4
  Tumor Volume: 0.05
[2]; ADR 2.5 mg/Kg, day 1, Mouse 5
  Tumor Volume: 0.06
[2]; ADR 2.5 mg/Kg, day 1, Mouse 6
  Tumor Volume: 0.06
[2]; ADR 2.5 mg/Kg, day 5, Mouse 1
  Tumor Volume: 0.05
[2]; ADR 2.5 mg/Kg, day 5, Mouse 2
  Tumor Volume: 0.07
[2]; ADR 2.5 mg/Kg, day 5, Mouse 3
  Tumor Volume: 0.06
[2]; ADR 2.5 mg/Kg, day 5, Mouse 4
  Tumor Volume: 0.06
[2]; ADR 2.5 mg/Kg, day 5, Mouse 5
  Tumor Volume: 0.05
[2]; ADR 2.5 mg/Kg, day 5, Mouse 6
  Tumor Volume: 0.06
[2]; ADR 2.5 mg/Kg, day 9, Mouse 1
  Tumor Volume: 0.05
[2]; ADR 2.5 mg/Kg, day 9, Mouse 2
  Tumor Volume: 0.08
[2]; ADR 2.5 mg/Kg, day 9, Mouse 3
  Tumor Volume: 0.04
[2]; ADR 2.5 mg/Kg, day 9, Mouse 4
  Tumor Volume: 0.04
[2]; ADR 2.5 mg/Kg, day 9, Mouse 5
  Tumor Volume: 0.06
[2]; ADR 2.5 mg/Kg, day 9, Mouse 6
  Tumor Volume: 0.05
[2]; ADR 2.5 mg/Kg, day 12, Mouse 1
  Tumor Volume: 0.06
[2]; ADR 2.5 mg/Kg, day 12, Mouse 2
  Tumor Volume: 0.10
[2]; ADR 2.5 mg/Kg, day 12, Mouse 3
  Tumor Volume: 0.05
[2]; ADR 2.5 mg/Kg, day 12, Mouse 4
  Tumor Volume: 0.05
[2]; ADR 2.5 mg/Kg, day 12, Mouse 5
  Tumor Volume: 0.06
[2]; ADR 2.5 mg/Kg, day 12, Mouse 6
  Tumor Volume: 0.07
[2]; ADR 2.5 mg/Kg, day 15, Mouse 1
  Tumor Volume: 0.07
[2]; ADR 2.5 mg/Kg, day 15, Mouse 2
  Tumor Volume: 0.16
[2]; ADR 2.5 mg/Kg, day 15, Mouse 3
  Tumor Volume: 0.07
[2]; ADR 2.5 mg/Kg, day 15, Mouse 4
  Tumor Volume: 0.06
[2]; ADR 2.5 mg/Kg, day 15, Mouse 5
  Tumor Volume: 0.08
[2]; ADR 2.5 mg/Kg, day 15, Mouse 6
  Tumor Volume: 0.11
[2]; ADR 2.5 mg/Kg, day 18, Mouse 1
  Tumor Volume: 0.07
[2]; ADR 2.5 mg/Kg, day 18, Mouse 2
  Tumor Volume: 0.21
[2]; ADR 2.5 mg/Kg, day 18, Mouse 3
  Tumor Volume: 0.07
[2]; ADR 2.5 mg/Kg, day 18, Mouse 4
  Tumor Volume: 0.07
[2]; ADR 2.5 mg/Kg, day 18, Mouse 5
  Tumor Volume: 0.07
[2]; ADR 2.5 mg/Kg, day 18, Mouse 6
  Tumor Volume: 0.16
[2]; ADR 2.5 mg/Kg, day 21, Mouse 1
  Tumor Volume: 0.05
[2]; ADR 2.5 mg/Kg, day 21, Mouse 2
  Tumor Volume: 0.23
[2]; ADR 2.5 mg/Kg, day 21, Mouse 3
  Tumor Volume: 0.08
[2]; ADR 2.5 mg/Kg, day 21, Mouse 4
  Tumor Volume: 0.11
[2]; ADR 2.5 mg/Kg, day 21, Mouse 5
  Tumor Volume: 0.13
[2]; ADR 2.5 mg/Kg, day 21, Mouse 6
  Tumor Volume: 0.17
[2]; ADR 2.5 mg/Kg, day 25, Mouse 1
  Tumor Volume: 0.08
[2]; ADR 2.5 mg/Kg, day 25, Mouse 2
  Tumor Volume: 0.31
[2]; ADR 2.5 mg/Kg, day 25, Mouse 3
  Tumor Volume: 0.33
[2]; ADR 2.5 mg/Kg, day 25, Mouse 4
  Tumor Volume: 0.24
[2]; ADR 2.5 mg/Kg, day 25, Mouse 5
  Tumor Volume: 0.17
[2]; ADR 2.5 mg/Kg, day 25, Mouse 6
  Tumor Volume: 0.29
[2]; ADR 2.5 mg/Kg, day 30, Mouse 2
  Tumor Volume: 0.53
[2]; ADR 2.5 mg/Kg, day 30, Mouse 3
  Tumor Volume: 0.55
[2]; ADR 2.5 mg/Kg, day 30, Mouse 4
  Tumor Volume: 0.29
[2]; ADR 2.5 mg/Kg, day 30, Mouse 5
  Tumor Volume: 0.28
[2]; ADR 2.5 mg/Kg, day 30, Mouse 6
  Tumor Volume: 0.40
[3]; MIA PaCa-2, Mia-Pa-Ca-2, calculated from graph
  GI50: < 10 µg/mL
[3]; MIA PaCa-2, Mia-Pa-Ca-2, Molar drug concentrations calculated from graph
  GI50: 4.75 µg/mL (≈ 8.74 µM)
[3]; Mia-Pa-Ca-2, 10 μg/ml, Average Values
  % Control Growth: −89.7%
[3]; Mia-Pa-Ca-2, 10 μg/ml, Experiment 1
  % Control Growth: −88.7%
[3]; Mia-Pa-Ca-2, 10 μg/ml, Experiment 2
  % Control Growth: −89.2%
[3]; Mia-Pa-Ca-2, 10 μg/ml, Experiment 3
  % Control Growth: −91.2%
[3]; Mia-Pa-Ca-2, 20 μg/ml, Average Values
  % Control Growth: −91.1%
[3]; Mia-Pa-Ca-2, 20 μg/ml, Experiment 1
  % Control Growth: −91.3%
[3]; Mia-Pa-Ca-2, 20 μg/ml, Experiment 2
  % Control Growth: −90.4%
[3]; Mia-Pa-Ca-2, 20 μg/ml, Experiment 3
  % Control Growth: −91.5%
[3]; Mia-Pa-Ca-2, 40 μg/ml, Average Values
  % Control Growth: −91.5%
[3]; Mia-Pa-Ca-2, 40 μg/ml, Experiment 1
  % Control Growth: −91.4%
[3]; Mia-Pa-Ca-2, 40 μg/ml, Experiment 2
  % Control Growth: −92.3%
[3]; Mia-Pa-Ca-2, 40 μg/ml, Experiment 3
  % Control Growth: −91.0%
[3]; Mia-Pa-Ca-2, 80 μg/ml, Average Values
  % Control Growth: −84.7%
[3]; Mia-Pa-Ca-2, 80 μg/ml, Experiment 1
  % Control Growth: −84.1%
[3]; Mia-Pa-Ca-2, 80 μg/ml, Experiment 2
  % Control Growth: −87.5%
[3]; Mia-Pa-Ca-2, 80 μg/ml, Experiment 3
  % Control Growth: −82.3%
[3]; Mia-Pa-Ca-2, 10^−4M, Average Values
  % Control Growth: −89.6%
[3]; Mia-Pa-Ca-2, 10^−4M, Experiment 1
  % Control Growth: −88.2%
[3]; Mia-Pa-Ca-2, 10^−4M, Experiment 2
  % Control Growth: −89.7%
[3]; Mia-Pa-Ca-2, 10^−4M, Experiment 3
  % Control Growth: −91.0%
[3]; Mia-Pa-Ca-2, 10^−5M, Average Values
  % Control Growth: −87.8%
[3]; Mia-Pa-Ca-2, 10^−5M, Experiment 1
  % Control Growth: −88.7%
[3]; Mia-Pa-Ca-2, 10^−5M, Experiment 2
  % Control Growth: −87.4%
[3]; Mia-Pa-Ca-2, 10^−5M, Experiment 3
  % Control Growth: −87.3%
[3]; Mia-Pa-Ca-2, 10^−6M, Average Values
  % Control Growth: −75.8%
[3]; Mia-Pa-Ca-2, 10^−6M, Experiment 1
  % Control Growth: −77.3%
[3]; Mia-Pa-Ca-2, 10^−6M, Experiment 2
  % Control Growth: −75.7%
[3]; Mia-Pa-Ca-2, 10^−6M, Experiment 3
  % Control Growth: −74.5%
[3]; Mia-Pa-Ca-2, 10^−7M, Average Values
  % Control Growth: −60.2%
[3]; Mia-Pa-Ca-2, 10^−7M, Experiment 1
  % Control Growth: −3.2%
[3]; Mia-Pa-Ca-2, 10^−7M, Experiment 2
  % Control Growth: −88.2%
[3]; Mia-Pa-Ca-2, 10^−7M, Experiment 3
  % Control Growth: −89.3%
[3]; Mia-Pa-Ca-2, Molar drug concentrations calculated from graph
  TGI: 4.69 µg/mL (≈ 8.63 µM)
[3]; Mia-Pa-Ca-2, calculated from graph
  TGI: <10 µg/mL
